Test: gradient 5% acetonitrile 3 min, to 50% in 2 min, to 85% in 15 min, held 3 min, 100 µL/min
Conditions: column: Zorbax Extend-C18 2.1 x 50 mm; eluents: water / acetonitrile, 0.1% formic acid
Method in brief: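 Using water and acetonitrile that each contained 0.1% formic acid, mixtures of ~100 pure standards were separated at 100 μL/min on a Zorbax Extend-C18 column (2.1 × 50 mm, 1.8 μm). The HPLC fed a quadrupole time-of-flight mass spectrometer working in positive and negative ionization mode, with dead and dwell volumes of 40 μL and 900 μL. Data were acquired over 3 months. Retention time was read from computationally picked adduct peaks after manual inspection of each.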

Row | SMILES | RP-LC retention time [s]
1 | COCCn1ccc2nc(C)c(C(=O)N3CCN(c4ncccn4)CC3)cc2c1=O | 609
2 | Cc1ccc(S(=O)(=O)N2CCC(c3cc4n(n3)CCCN(C)C4=O)CC2)cc1C | 806
3 | O=C(NC1CC1)C1(CCO)CCN(Cc2ccccc2)C1 (centres undefined) | 564
4 | CC(C)NC(=O)N1CCCC(OCc2nc(-c3ccccc3)no2)C1 (centres undefined) | 551
5 | COc1ccc(-c2cc(C(=O)N3CCCC3c3c(C)noc3C)on2)cc1 (centres undefined) | 856
6 | Oc1ccc(Cl)cc1C1CC(c2ccc(Cl)cc2)=NC2(CCN(Cc3ccccc3)CC2)N1 (centres undefined) | 791
7 | CNC(=O)Oc1ccc(N(C)C)cc1C(C)C | 642
8 | Cc1cc(-c2ccc(S(=O)(=O)N3CCC(C(=O)NCc4ccco4)CC3)o2)n[nH]1 | 733
9 | COc1ccccc1-c1noc(-c2nn(-c3ccc(Cl)cc3)ccc2=O)n1 | 832
10 | CCCOc1nccnc1NC1CCN(C(=O)c2ccnn2C)CC1 | 706
11 | Cc1cc2[nH]c(C(=O)Nc3ccc(F)c(C)c3)c(CN3CCOCC3)c2s1 | 720
12 | O=C(NC1CCCCCC1)c1ccnc(N2CCNC(c3ccccc3)C2)c1 (centres undefined) | 684
13 | Cc1ccc(NC(=O)C(=O)NCC2CCN(S(=O)(=O)C3CC3)CC2)cc1F | 828
14 | CCOc1ccc(-n2c(=O)c3sccc3n(Cc3nc(-c4cccc(C)c4)no3)c2=O)cc1 | 1100
15 | COC(=O)C1CCN(C(=O)C(=O)Nc2c3c(nn2-c2ccc(Cl)cc2)CSC3)CC1 | 671
16 | O=C(C1CCOC1)N1CC(Oc2ccc(-c3nc(-c4ccccc4)no3)cc2)C1 (centres undefined) | 952
17 | COc1cccc(C(=O)NCCCS(=O)(=O)N2CCN(c3ccccc3)CC2)c1OC | 810
18 | COc1cccc(N2CCN(C(=O)c3cc(C4CC4)[nH]n3)CC2)c1 | 813
19 | COc1ccc(N2C(=O)C3N=NN(Cc4nc(-c5ccc(Cl)cc5)no4)C3C2=O)cc1 (centres undefined) | 1000

Row | SMILES | RP-LC retention time [s]
20 | O=C(NC1CC1)C1CCN(C(=O)c2ncn3c2COC(c2ccccc2)C3)CC1 (centres undefined) | 619
21 | COc1ccccc1CNC(=O)Cn1c(=O)c2cc(C3CC3)nn2c2ncccc21 | 760
22 | Cc1cccc(Oc2nccnc2N2CCC(C(=O)NC(C)c3ccc(C)cc3C)CC2)c1 (centres undefined) | 1150
23 | C[C@H]1CN(C(=O)c2ccccc2F)C[C@@H]1c1nc(-c2ccccc2)no1 | 1020
24 | O=C(Nc1ccccc1)C1CCN(S(=O)(=O)c2cc(-c3noc(C4CC4)n3)cs2)CC1 | 1020
25 | CS(=O)(=O)Nc1ccc(C2(C(=O)NCc3cc(F)cc(F)c3)CCCCC2)cc1 | 916
26 | O=C(c1ccc(-c2cncnc2)nc1)N1CCN(c2ccccc2Cl)CC1 | 829
27 | CCSc1nc2ccc(NS(=O)(=O)c3ccc(F)cc3)cc2s1 | 1010
28 | CCCC(=O)N1CCc2c(c(-c3nnc(SC)n3CC)nn2C)C1 | 705
29 | Cn1cc(CN2CCC(C(=O)NCCC3=CCCCC3)CC2)c2cc(Cl)ccc21 | 778
30 | CN1CCN(c2nc3c(c(Nc4ccccc4)n2)C(=O)CC(C)(C)C3)CC1 | 713
31 | C=CCNC(=O)NC1CCN(C2=NS(=O)(=O)C(c3ccccc3)=C2C)CC1 | 705
32 | O=C(NCCN1CCN(Cc2ccccc2)CC1)c1cc(=O)n2c(nc3ccccc32)s1 | 649
33 | CCOc1ccc(NC(=O)c2c(O)c3cccnc3n(-c3ccc(F)cc3)c2=O)cc1 | 1280
34 | Cc1sc(-c2cc(C(F)(F)F)[nH]n2)cc1S(=O)(=O)N1CCN(c2ccc(Cl)cc2)CC1 | 1180
35 | Cn1nc(C(=O)N2CCCC(C(=O)Nc3ccccc3)C2)c2c1CCN(C(=O)c1ccco1)C2 (centres undefined) | 717
36 | COCC(=O)N1CC(c2nnc(C(C)C)o2)C2(CCOCC2)C1 (centres undefined) | 577
37 | O=C(COc1ccccc1F)Nc1cc(C(F)(F)F)ccc1Cl | 1150
38 | Cc1nc(-c2ccccc2)nc2c1CCC(=O)N2Cc1cccs1 | 1120

Row | SMILES | RP-LC retention time [s]
39 | CCOC(=O)c1c(C)[nH]c(C(=O)N2CCCC(C(=O)NCCCN3CCCCCC3)C2)c1C (centres undefined) | 624
40 | Cc1noc2nc(C)n(CC(=O)NCc3ccccc3F)c(=O)c12 | 710
41 | COc1ccc(OC)c(S(=O)(=O)NCc2ccc3c(c2)CCN3C(=O)c2ccccc2)c1 | 896
42 | O=C(NCCN1CCCCC1)c1csc(-c2ccnc(N3CCOCC3)c2)n1 | 566
43 | COc1cc(Cl)c(CC2C(=O)Nc3ccccc32)cc1OC (centres undefined) | 900
44 | COC(=O)c1ccc(NC(=O)Cn2cnc3c(sc4nc(-c5ccccc5)ccc43)c2=O)cc1 | 985
45 | COc1ccc(NC(=O)Cn2c(N3CCOCC3)nc(C)cc2=O)cc1 | 609
46 | O=c1c(=O)n(Cc2nc(-c3ccc4c(c3)OCO4)no2)ccn1Cc1ccc(Cl)cc1 | 879
47 | CCOC(=O)c1[nH]c(C)c(CCC(=O)N2CCC(C(=O)NCCCc3ccccc3)CC2)c1C | 842
48 | COCC1(O)CCOC2(CCN(Cc3cccc(Cl)c3F)CC2)C1 (centres undefined) | 560
49 | CC(=O)OCC(=O)[C@@]12N=C(C)O[C@@H]1C[C@H]1[C@@H]3CCC4=CC(=O)C=C[C@]4(C)[C@H]3[C@@H](O)C[C@@]12C | 862
50 | CCOc1ccc(CNCCSc2nnnn2C)cc1Cl | 618
51 | O=C(Nc1ccc(C(F)(F)F)cn1)c1cccc2cccnc12 | 1090
52 | CC(CCNC(=O)C(C)n1c2ccccc2c2cnn(C)c(=O)c21)N1CCCC1 (centres undefined) | 612
53 | Cc1ccc(C)c(N2CCN(S(=O)(=O)c3c(C)sc(C)c3-c3n[nH]c(C)c3C)CC2)c1 | 1190
54 | CCOC(=O)c1cccc(N2C=C(C#N)S(=O)(=O)c3c(F)cccc32)c1 | 907
55 | CC(=O)Nc1cccc(C2=NN(C(C)=O)C(c3cccs3)C2)c1 (centres undefined) | 685
56 | Cc1nnc(NC(=O)CN2CCCCC2c2nc(C(C)C)no2)s1 (centres undefined) | 781

Next, values leading:

Row | RP-LC retention time [s] | SMILES
57 | 606 | CCc1nc2cc(N3CCCC(C(=O)NC(C)c4cccnc4)C3)cnc2nc1CC (centres undefined)
58 | 822 | CCOc1cc(C(=O)NC2CCN(c3cc(-c4ccccc4)[nH]n3)C2)cc(OCC)c1OCC (centres undefined)
59 | 604 | Cc1nn(C)c(C)c1CCN(C)c1nc(C2CC2)nc2c1CCC2
60 | 1030 | CCCc1noc(-c2ccc(-n3ncc(C(=O)NC4CCCC4)c3C)nc2)n1
61 | 620 | CNC(=O)[C@@H]1CN(C(=O)CCc2cc(OC)no2)C[C@H]1c1nc(C)no1
62 | 662 | CN1CCn2cc(S(=O)(=O)Nc3ccc(C#N)cc3)cc2C1=O
63 | 685 | CCCCN1CCN(C(=O)C2=NN(c3ccc(C)cc3)c3ncccc3S2(=O)=O)CC1
64 | 700 | Cc1ccc(CNC(=O)CCNc2c(-c3cccc(F)c3)nc3cnccn23)o1
65 | 569 | Cc1nc(-c2nnc(NC(=O)Cn3cnc4c3c(=O)n(C)c(=O)n4C)o2)cs1
66 | 822 | O=S(=O)(Cc1ccccc1)N1CCC(c2noc(-c3cccnc3)n2)C1 (centres undefined)
67 | 553 | CCn1cc(CC(=O)N2CCC(N3CCCCC3)CC2)c2cccnc21
68 | 838 | O=c1ccn(-c2ccc(F)cc2)nc1-c1nc(-c2ccccc2F)no1
69 | 1010 | O=C(Nc1cccc(Cl)c1)c1ccccn1
70 | 809 | CC(=O)Oc1cc2c(C(=O)NCC3CCCO3)c(C)oc2c2ccccc12 (centres undefined)
71 | 976 | O=C(Nc1ccc(Cl)cc1)C1CCCN(S(=O)(=O)Cc2ccccc2)C1 (centres undefined)
72 | 572 | CCC(=O)N1CCc2cc(N3CC(C(=O)N4CCCN(C)CC4)CC3=O)ccc21 (centres undefined)
73 | 1120 | CC1CCN(c2nn(CC(=O)Nc3ccc(F)cc3)c(=O)c3ccccc23)CC1

Row | RP-LC retention time [s] | SMILES
74 | 777 | COCc1c(C(=O)O)nnn1-c1ccc2c(c1)CCC2
75 | 1230 | COc1cccc(NC(=O)Cc2c(C)nn(-c3nc(-c4ccc(Cl)cc4)cs3)c2C)c1
76 | 933 | CCOc1ccccc1NC(=O)Cn1c(=O)n(-c2ccc(F)cc2)c(=O)c2c1cc(C)n2C
77 | 662 | COc1ccc(S(=O)(=O)Nc2cc(-c3cn4ccc(C)cc4n3)ccc2C)cc1
78 | 1100 | CC(C)Cc1cc(-c2nn3c(-c4ccc(Cl)cc4)nnc3s2)n[nH]1
79 | 676 | COc1ccc(-n2nc(C(=O)N3CCN(c4ccccn4)CC3)c3c4ccccc4n(C)c3c2=O)cc1
80 | 816 | CN(CC1CCOCC1)C(=O)Nc1cccc(C(F)(F)F)c1
81 | 684 | COCCC(=O)N1CC2CN(S(=O)(=O)c3ccc(C)cc3)CC(C1)O2
82 | 680 | COc1ccc(OC)c(CNC(=O)C2CCN(c3ccc4nncn4n3)CC2)c1
83 | 746 | CC(C)(C)NC(=O)c1ccc2c(c1)CCCN2S(C)(=O)=O
84 | 701 | Cc1ccc(S(=O)(=O)N2CCC(CC(=O)N3CCN(c4ccccn4)CC3)CC2)cc1
85 | 600 | Cc1cc(NC(=O)C2=COCCO2)no1
86 | 565 | Cc1cnc(C)n1CC1CCN(C(=O)C2CCC2)C1 (centres undefined)
87 | 939 | O=C(O)c1ccccc1-c1ccccc1C(=O)Nc1ccc2c(c1)Cc1ccccc1-2
88 | 750 | Cc1cc(C)c(C#N)c(SCC(=O)Nc2nccs2)n1
89 | 806 | CC(C)n1cnc(S(=O)(=O)N2CCCC(C(=O)NCCCc3ccccc3)C2)c1 (centres undefined)
